Measured values taken from patent US20200345055A1, “ACTIVATION OF CONDITIONALLY-EXPRESSED OLIGOSACCHARIDE PATHWAYS DURING FERMENTATION OF PROBIOTIC STRAINS” (EVOLVE BIOSYSTEMS, INC., priority 2018, published 2020).
Entries after “also recorded” stand apart in the source; their conditions may differ.

Tests used:
[1] = system: Blon_0881 (glucosamine-6-phosphate isomerase); assay: qRT-PCR gene expression in B. infantis EVC001, relative to Blon_0393, 2^-ΔΔCt; type: cell-based, Bifidobacterium longum subsp. infantis EVC001; settings: 10 g/L activator + 10 g/L glucose, 16 hours; control 20 g/L glucose = 1
Description: (§1) In some embodiments, gene activation relates to Blon_0881 and Blon_2343 and their expression is greater than 1; that is, when the delta delta cycle threshold (2^−ΔΔ^Ct) is greater than 1, 2^−ΔΔ^Ct is calculated using Blon_0393, or another constitutively expressed gene as a reference. The result (activation) is the fold change (2^−ΔΔ^Ct>1) of gene expression, determined based on the 2^−ΔΔ^Ct method. (Livak K and Schmittgen T. (2001). Analysis of relative gene expression data using qRT-PCR and the 2^−ΔΔ^Ct Method. Methods: 25: 402-8). In other embodiments, other genes from Table 1 are used in addition to Blon_0881 and Blon_2343.
(§2) B. infantis EVC001 (Bifidobacterium longum subsp. infantis EVC001 deposited under ATCC Accession No. PTA-125180) was grown under 3 different experimental conditions for 16 hours. The carbon source was added to the initial culture media in the following amounts: 1) 20 g/L glucose; 2) 10 g/L N-acetyl-lactosamine and 10 g/L glucose; and 3) 10 g/L NAG and 10 g/L glucose. The cells were harvested and RNA was extracted to look specifically at gene expression of Blon_0881 and Blon_2343 by qRT-PCR relative to Blon_0393 and expressed as 2^−ΔΔ^Ct. Activation is determined by comparing against the control (glucose). A result greater than 1 is considered activated N-acetyl-lactosamine is an activator of B. infantis EVC001.

[2] = system: Blon_2343 (carbohydrate ABC transporter inner membrane protein); assay: as above; type: cell-based, Bifidobacterium longum subsp. infantis EVC001; settings: 10 g/L activator + 10 g/L glucose, 16 hours; control 20 g/L glucose = 1
Description: as §1, §2

B. infantis EVC001 = assay: Activation of B. infantis EVC001 judged from Blon_0881 and Blon_2343 expression against glucose control; type: cell-based, Bifidobacterium longum subsp. infantis EVC001; settings: 10 g/L activator + 10 g/L glucose, 16 hours
Description: as §1, §2

[3] = system: fucosidase activity in B. infantis; assay: Fucosidase activity of dried B. infantis final product (colorimetric nitrophenol release, absorbance at 450 nm); type: cell-based, Bifidobacterium infantis
Description: FIG. 1. A comparison of fucosidase activity between a final product of B. infantis grown on N-acetylglucosamine (NAG) and a final product of B. infantis grown on glucose/lactose. B. infantis grown on 2.5% w/v NAG is compared to B. infantis grown on glucose/lactose. The absorbance due to the colorometric change resulting from fucosidase activity in the supernatant is measured using a spectrophotometer at 450 nm. […] A fermentation media was made that contained NAG as 100% of the carbon source. This represented 2% of the total media composition (wt/vol). The media also contained sources of nitrogen, minerals, reducing agents and was autoclaved prior to addition of a B. infantis inoculum. The fermentation was carried out under anaerobic conditions for up to 72 hours, until the fermentation reached the stationary phase. The cells were separated from the spent media and concentrated. A cryoprotectant was mixed with the cells to stabilize before freeze-drying. Once dried, the formulation was analyzed for fucosidase activity compared to a dried formulation that had been grown on glucose/lactose. […] The colorimetric difference was confirmed using a spectrophotometer (FIG. 1).

[4] = system: Blon_2343 and Blon_0881 in B. infantis; assay: qRT-PCR of Blon_2343 and Blon_0881 in B. infantis grown on NAG/glucose, normalized to Blon_0393; type: cell-based; settings: all tested concentrations of NAG (5-20 g/L with glucose to 20 g/L), harvested after 6 or 12 hours; FIG. 2
Description: FIG. 2. Average relative fold change in gene expression of the genes Blon_2343 and Blon_0881 in B. infantis coding a carbohydrate ABC transporter inner membrane protein and a glucosamine-6-phosphate isomerase or NagB, respectively. Different concentrations of N-acetylglucosamine (NAG) were added to the culture media used to ferment B. infantis. The cells were harvested after 6 hours (A) or 12 hours of growth (B) and RNA was isolated for quantitative reverse transcription PCR (qRT-PCR). Activation was assessed using specific primers for Blon_2343 and Blon_0881 and normalized to a housekeeping gene (Blon_0393). The dashed horizontal line represents no change in expression. […] Cells grown in glucose alone (0 g/L NAG) show no activation.
In some embodiments, gene activation relates to Blon_0881 and Blon_2343 and their expression is greater than 1; that is, when the delta delta cycle threshold (2^−ΔΔ^Ct) is greater than 1, 2^−ΔΔ^Ct is calculated using Blon_0393, or another constitutively expressed gene as a reference. The result (activation) is the fold change (2^−ΔΔ^Ct>1) of gene expression, determined based on the 2^−ΔΔ^Ct method. […]
A series of fermentations were conducted where B. infantis was grown on various concentrations of NAG and glucose shown in Table 5. The cells were grown for a determined period of time (i.e 6 and 12 hours) and spun down. […]

[5] = system: N-acetylglucosamine-6-phosphate deacetylase gene in L. plantarum; assay: qRT-PCR of N-acetylglucosamine-6-phosphate deacetylase in Lactobacillus plantarum, normalized to rpoB; type: cell-based; settings: for activation of L. plantarum (fold change of N-acetylglucosamine-6-phosphate deacetylase expression): FIG. 3
Text: FIG. 3. Average relative fold change in the expression of the genes coding for N-acetylglucosamine-6-phosphate deacetylase under different concentrations of N-acetylglucosamine (NAG) added to the culture media for Lactobacillus plantarum. Culture media with different concentrations of NAG (3, 12.5 and 20 g/L) were used to ferment Lactobacillus plantarum. The cells were harvested and RNA was isolated for qRT-PCR. Using specific primers for N-acetylglucosamine-6-phosphate deacetylase, activation was assessed using normalization to a housekeeping gene (rpoB) found in L. plantarum. […] Three different fermentation media compositions were made that contained: 1) 100% NAG (25 g/L); 2) 50% NAG (12.5 g/L) with 50% Lactose (12.5 g/L); and 3) 12.5% NAG (3 g/L) with 87.5% lactose (22 g/L). This represented about 2% of the total media composition (wt/vol). The media also contained sources of nitrogen, minerals, reducing agents and was autoclaved prior to addition of L. plantarum inoculum. The fermentation was carried out under anaerobic conditions for 24 hours until the cells reached the stationary phase. The cells were harvested and RNA extracted (Sambrook, Joseph. & Russell, David W. & Cold Spring Harbor Laboratory. (2012). Molecular cloning: a laboratory manual. Cold Spring Harbor, N.Y: Cold Spring Harbor Laboratory). Specific primers for Lactobacillus were used for the following gene N-acetylglucosamine-6-phosphate deacetylase (activation gene) using normalization to a housekeeping gene (rpoB) found in L. plantarum.

Compound | Mean 2^-ΔΔCt BLON_0881 [1] | Mean 2^-ΔΔCt BLON_2343 [2] | Interpretation (activation; result greater than 1 is considered activated) (B. infantis EVC001) | fucosidase activity (absorbance at 450 nm) ([3]; B. infantis final product grown on 2.5% w/v NAG, compared to cells grown on glucose/lactose, FIG. 1) | release of nitrophenol from aryl-substituted glycoside via fucosidases ([3]; dried B. infantis grown on NAG as 100% of carbon source, 2% wt/vol of media, up to 72 hours, compared to glucose/lactose) | relative fold change in gene expression of Blon_2343 and Blon_0881 (2^ΔΔCt), activation [4] | activation of L. plantarum (fold change of N-acetylglucosamine-6-phosphate deacetylase expression) ([5]; 3 g/L NAG (12.5%) with 22 g/L lactose, 24 hours) | activation of L. plantarum (fold change of N-acetylglucosamine-6-phosphate deacetylase expression) ([5]; 12.5 g/L NAG (50%) with 12.5 g/L lactose, 24 hours) | activation of L. plantarum (fold change of N-acetylglucosamine-6-phosphate deacetylase expression) ([5]; 20 g/L NAG in culture media) | activation of L. plantarum (N-acetylglucosamine-6-phosphate deacetylase expression) ([5]; 100% NAG (25 g/L) as carbon source, 24 hours)
CC(=O)N[C@H]1C(O)O[C@H](CO)[C@@H](O[C@@H]2O[C@H](CO)[C@H](O)[C@H](O)[C@H]2O)[C@@H]1O (stereo partly shown) [N-acetyl-lactosamine] | 10.50 | 6.94 | activator; also recorded: Activated |  |  |  |  |  |  | 
CC(=O)N[C@H]1C(O)O[C@H](CO)[C@@H](O)[C@@H]1O (stereo partly shown) [NAG, N-acetylglucosamine] | 3.41 | 2.10 | Activated | had fucosidase activity | release nitrophenol | > 1 | did not | activated; also recorded: activation | activated | activation
